# Laboratory results as given in patent publication US20090068290A1, “BIFEPRUNOX DOSES FOR TREATING SCHIZOPHRENIA” (priority 2006, published 2009).
# How the values were obtained:
# Type in all cases: in vivo, human
# [1] = system: adult subjects with schizophrenia; experiment: BPRS psychosis cluster score, Clinical Study Three; details: LOCF; for Change from Baseline in BPRS Psychosis Cluster Score, Mean (SD) / Change from Baseline in BPRS Psychosis Cluster Score, Median: Olanzapine 15 mg, ITT population
# Source text: SECONDARY OBJECTIVES To assess the efficacy of bifeprunox in treating schizophrenia using the Positive Symptom sub-scale score of the PANSS, the Negative Symptom sub-scale score of the PANSS, the General Psychopathology sub-scale of the PANSS, Brief Psychiatric Rating Scale (BPRS) total score derived from the PANSS, BPRS psychosis score derived from the PANSS, the Clinical Global Impression Severity of Illness score (CGI-S), the Clinical Global Impression Improvement score (CGI-I), CGI-I responder rate, PANSS responder rate based on the PANSS total score, Calgary Depression Scale for Schizophrenia (CDSS), and Subject Satisfaction rating.
# There were four treatment arms in this study, approximately 144 subjects per arm. […] After completing the Single-Blind Placebo Lead-in Period of at least three days, bifeprunox-treated subjects were titrated from 0.25 mg up to 20 mg/day or 30 mg/day according to a standardized titration scheme over a seven- or eight-day period, respectively. When the assigned dose was reached, subjects were maintained at that dose for the remainder of the six week treatment period. […] Subjects were hospitalized (if not already inpatients) after eligibility for study entry was verified, starting from the Screening Visit until at least 10 days after Baseline. Subjects could be hospitalized longer than 10 days if considered medically necessary by the Investigator. Rating scale assessments for efficacy and abnormal movement disorders were done weekly except for Week 5. […] Subject satisfaction with study medication was assessed at Week 6.
# [2] = system: adult subjects with schizophrenia; experiment: PANSS responder rate, Clinical Study Two; details: risperidone 6 mg
# Protocol: Notable differences were also observed between the 30 mg bifeprunox group and placebo for the change from baseline to endpoint in PANSS general psychopathology subscale score, BPRS total score, BPRS psychosis cluster score, PANSS responder rate, and CGI-I responder rate. […] A CGI-I responder refers to a subject who was categorized as “very much improved” or “much improved” in the CGI Global Improvement scale at endpoint. […]
# Subjects who completed this study had the option to continue in the long-term. […] Risperidone-treated subjects were titrated from 2 mg to 6 mg daily over a three-day period and were subsequently maintained at 6 mg/day for the remainder of the treatment period. […] Blood samples were also obtained at Screening/Baseline, Week 3, and Week 6 for clinical laboratory assessments. […]
# [3] = system: adult subjects with schizophrenia; experiment: Adverse events (TEAE, SAE, discontinuation, EPS-related TEAE, anticholinergic use), Clinical Study One
# Protocol: METHODOLOGY: This was a randomized, double-blind, fixed-dose, placebo-controlled, risperidone-referenced, parallel group, multi-center study in adult subjects with schizophrenia. There were five treatment groups in this study. […] Study medication was administered once daily. After Baseline measurements were performed, the titration phase was begun. Bifeprunox treated subjects were titrated up to 5 mg, 10 mg or 20 mg according to a standardized titration schedule (Day 1: 0.125 mg, Day 2: 0.25 mg, Day 3: 0.5 mg, Day 4: 1.0 mg, Day 5: 2.0 mg, Day 6: 5.0 mg, Day 7: 10.0 mg, Day 8: 20 mg).
# [4] = system: adult subjects with schizophrenia; experiment: Adverse events (TEAE, SAE, special interest, EPS-related TEAE), Clinical Study Two; details: Risperidone 6 mg
# Protocol: Subjects who completed this study had the option to continue in the long-term. […] Risperidone-treated subjects were titrated from 2 mg to 6 mg daily over a three-day period and were subsequently maintained at 6 mg/day for the remainder of the treatment period. […] Blood samples were also obtained at Screening/Baseline, Week 3, and Week 6 for clinical laboratory assessments.
smiles,measurement,setting,value
"Cc1cc2c(s1)Nc1ccccc1N=C2N1CCN(C)CC1 [Olanzapine, olanzapine, reference compound]","Change from Baseline in BPRS Psychosis Cluster Score, Mean (SD)",[1]; Week 1,−1.9 (2.3)
same,"Change from Baseline in BPRS Psychosis Cluster Score, Median",[1]; Week 1,−2
same,"Change from Baseline in BPRS Psychosis Cluster Score, Mean (SD)",[1]; Week 2,−3.1 (2.6)
same,"Change from Baseline in BPRS Psychosis Cluster Score, Median",[1]; Week 2,−3
same,"Change from Baseline in BPRS Psychosis Cluster Score, Mean (SD)",[1]; Week 3,−4.0 (3.2)
same,"Change from Baseline in BPRS Psychosis Cluster Score, Median",[1]; Week 3,−4
same,"Change from Baseline in BPRS Psychosis Cluster Score, Mean (SD)",[1]; Week 4,−4.4 (3.5)
same,"Change from Baseline in BPRS Psychosis Cluster Score, Median",[1]; Week 4,−5
same,"Change from Baseline in BPRS Psychosis Cluster Score, Mean (SD)",[1]; Week 6/Endpoint,−4.9 (4.0)
same,"Change from Baseline in BPRS Psychosis Cluster Score, Median",[1]; Week 6/Endpoint,−5
same,mean change (SD) from Baseline to Endpoint in BPRS psychosis cluster score,"[1]; olanzapine 15 mg, ITT",−4.9 (4.0)
"Cc1nc2n(c(=O)c1CCN1CCC(c3noc4cc(F)ccc34)CC1)CCCC2 [Risperidone, risperidone, reference compound]",PANSS 20% responder rate,[2]; Endpoint LOCF,54%
same,PANSS 30% responder rate,[2]; Endpoint LOCF,31%
same,"PANSS Responder at Endpoint, 30% Definition Responder, No","[2]; LOCF, ITT",104 (69%) n (%)
same,"PANSS Responder at Endpoint, 30% Definition Responder, Yes","[2]; LOCF, ITT",47 (31%) n (%)
same,"PANSS Responder at Week 6/Endpoint, 20% Definition, No","[2]; LOCF, ITT",69 (46%) n (%)
same,"PANSS Responder at Week 6/Endpoint, 20% Definition, Yes","[2]; LOCF, ITT",78 (54%) n (%)
same,"TEAE Akathisia, %","[3]; 6 mg, Safety Population",(5%)
same,"TEAE Muscle Spasms, %","[3]; 6 mg, Safety Population",(2%)
same,"TEAE Musculoskeletal Stiffness, %","[3]; 6 mg, Safety Population",(<1%)
same,"TEAE Myalgia, %","[3]; 6 mg, Safety Population",(2%)
same,"TEAE NERVOUS SYSTEM DISORDERS, %","[3]; 6 mg, Safety Population",(49%)
same,"TEAE Neck Pain, %","[3]; 6 mg, Safety Population",(2%)
same,"TEAE Neck Stiffness, %","[3]; 6 mg, Safety Population",(<1%)
same,"TEAE Pain in Jaw, %","[3]; 6 mg, Safety Population",(<1%)
same,"TEAE Pain in Limb, %","[3]; 6 mg, Safety Population",(2%)
same,"Affect Lability, %",[3]; Risperidone 6 mg,(<1%)
same,"Agitation, %",[3]; Risperidone 6 mg,(8%)
same,"Alcoholic Hangover, %",[3]; Risperidone 6 mg,(<1%)
same,"Anxiety Aggravated, %",[3]; Risperidone 6 mg,(3%)
same,"Anxiety, %",[3]; Risperidone 6 mg,(6%)
same,"DIZZINESS, %",[3]; Risperidone 6 mg,(5%)
same,"DYSARTHRIA, %",[3]; Risperidone 6 mg,(2%)
same,"Disturbance in Attention, %",[3]; Risperidone 6 mg,(<1%)
same,"Drooling, %",[3]; Risperidone 6 mg,(2%)
same,"Dystonia, %",[3]; Risperidone 6 mg,(4%)
same,"EXTRAPYRAMIDAL DISORDER, %",[3]; Risperidone 6 mg,(3%)
same,"Gait Feastinating, %",[3]; Risperidone 6 mg,(<1%)
same,"Headache Nos, %",[3]; Risperidone 6 mg,(28%)
same,"Hypoaesthesia, %",[3]; Risperidone 6 mg,(<1%)
same,"Migraine Aggravated, %",[3]; Risperidone 6 mg,(<1%)
same,"Oculogyric Crisis, %",[3]; Risperidone 6 mg,(<1%)
same,"PARAESTHESIA, %",[3]; Risperidone 6 mg,(<1%)
same,"PSYCHIATRIC DISORDERS, %",[3]; Risperidone 6 mg,(39%)
same,"SEDATION, %",[3]; Risperidone 6 mg,(13%)
same,"SOMNOLENCE, %",[3]; Risperidone 6 mg,(22%)
same,"TREMOR, %",[3]; Risperidone 6 mg,(<1%)
same,incidence of aggravated schizophrenia NOS (SAE),[3]; Risperidone 6 mg,4%
same,subjects with at least one AE that led to discontinuation,[3]; Risperidone 6 mg,14%
same,subjects with at least one SAE,[3]; Risperidone 6 mg,16%
same,subjects with at least one TEAE,[3]; Risperidone 6 mg,89%
same,suicide attempt,[3]; Risperidone 6 mg,no subjects
same,"AKATHISIA, %",[4],(10%)
same,"BRADYKINESIA, %",[4],(1%)
same,"DISTURBANCE IN ATTENTION, %",[4],(1%)
same,"DIZZINESS, %",[4],(6%)
same,"DYSARTHRIA, %",[4],(2%)
same,"DYSKINESIA, %",[4],(<1%)
same,"Dystonia, %",[4],(7%)
same,"EXTRAPYRAMIDAL DISORDER, %",[4],(14%)
same,"HEADACHE NOS, %",[4],(15%)
same,"Hypoaesthesia, %",[4],1 (<1%)
same,"Memory Impairment, %",[4],1 (<1%)
same,"NERVOUS SYSTEM DISORDERS, %",[4],(53%)
same,"Parkinsonism, %",[4],1%
same,"SEDATION, %",[4],7%
same,"SINUS HEADACHE, %",[4],1 (<1%)
same,"SOMNOLENCE, %",[4],6%
same,"TARDIVE DYSKINESIA, %",[4],2%
same,"TREMOR, %",[4],5%
same,incidence of severe TEAE of schizophrenia,[4],2%
same,subjects with at least one TEAE,[4],78%
